Assay results taken from publication PMC9916685, “Discovery of Small Molecule COX-1 and Akt Inhibitors as Anti-NSCLC Agents Endowed with Anti-Inflammatory Action” (International Journal of Molecular Sciences, 2023).

Columns and labels:
[1] = tested on: L929 mouse fibroblast (normal) cells; test: MTT cytotoxicity assay, L929 normal cells; format: cell-based; details: MTT, L929 mouse fibroblast cells, mean ± SD
Protocol: A549 human lung adenocarcinoma and L929 mouse fibroblast cell lines were obtained from American Type Culture Collection (ATCC) (Manassas, VA, USA). Both cell lines were cultured, and drug treatments were carried out as previously reported.
MTT assay was conducted as previously explained in the literature with small modifications. Cisplatin was used as a positive control. The assay was performed in triplicate. IC50 data (µM) were expressed as mean ± SD.

COX-1 = molecular target: T1, COX-1 (Ovis aries, UniProt P05979); test: COX (ovine) colorimetric inhibitor screening assay, COX-1; format: biochemical; details: for IC50: ovine COX-1, colorimetric, triplicate, mean ± SD; for SI (IC50 for COX-1/IC50 for COX-2): selectivity index
T1 construct: purchased Cayman
T1 sequence (P05979 25-600): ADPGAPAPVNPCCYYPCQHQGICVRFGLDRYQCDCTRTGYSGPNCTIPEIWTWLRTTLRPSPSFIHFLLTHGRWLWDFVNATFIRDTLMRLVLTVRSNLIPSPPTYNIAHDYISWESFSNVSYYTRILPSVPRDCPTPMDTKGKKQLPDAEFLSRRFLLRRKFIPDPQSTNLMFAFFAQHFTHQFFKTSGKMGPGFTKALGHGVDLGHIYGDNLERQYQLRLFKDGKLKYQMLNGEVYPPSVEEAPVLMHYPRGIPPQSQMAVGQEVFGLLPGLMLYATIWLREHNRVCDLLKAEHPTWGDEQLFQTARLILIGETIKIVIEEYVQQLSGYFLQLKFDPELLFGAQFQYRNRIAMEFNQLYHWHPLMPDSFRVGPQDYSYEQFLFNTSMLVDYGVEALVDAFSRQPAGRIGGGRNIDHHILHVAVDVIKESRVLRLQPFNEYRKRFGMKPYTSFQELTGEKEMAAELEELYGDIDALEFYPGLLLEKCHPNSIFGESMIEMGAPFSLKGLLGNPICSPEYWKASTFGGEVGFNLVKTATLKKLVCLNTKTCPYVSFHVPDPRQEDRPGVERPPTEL
Protocol: (§1) COX (ovine) Colorimetric Inhibitor Screening Assay (Cayman, Ann Arbor, MI, USA) was conducted to detect the peroxidase component of COX-1 and COX-2 according to the manufacturer’s instructions. The assay was performed in triplicate. Half maximal inhibitory concentration (IC50) data (µM) were expressed as mean ± SD.

COX-2 = molecular target: T2, COX-2 (Ovis aries, UniProt P79208); test: COX (ovine) colorimetric inhibitor screening assay, COX-2; format: biochemical; details: ovine COX-2, colorimetric, triplicate, mean ± SD
T2 construct: purchased Cayman
T2 sequence (P79208 17-603): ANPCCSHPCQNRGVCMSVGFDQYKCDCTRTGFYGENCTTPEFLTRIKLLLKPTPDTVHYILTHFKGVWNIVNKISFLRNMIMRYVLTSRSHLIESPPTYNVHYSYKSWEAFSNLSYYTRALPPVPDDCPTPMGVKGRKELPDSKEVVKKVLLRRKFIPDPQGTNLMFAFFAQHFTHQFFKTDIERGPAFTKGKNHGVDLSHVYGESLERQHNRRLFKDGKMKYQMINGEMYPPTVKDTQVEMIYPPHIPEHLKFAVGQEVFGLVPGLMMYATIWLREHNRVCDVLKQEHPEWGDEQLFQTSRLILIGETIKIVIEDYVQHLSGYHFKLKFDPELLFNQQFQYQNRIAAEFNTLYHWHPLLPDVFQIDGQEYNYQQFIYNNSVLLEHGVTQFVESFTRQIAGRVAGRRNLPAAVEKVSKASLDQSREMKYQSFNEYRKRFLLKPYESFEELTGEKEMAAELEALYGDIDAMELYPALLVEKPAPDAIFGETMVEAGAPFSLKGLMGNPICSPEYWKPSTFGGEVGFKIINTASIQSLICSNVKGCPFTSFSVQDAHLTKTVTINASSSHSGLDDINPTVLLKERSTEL
Protocol: as §1

| Compound | melting point [°C] | IC50 (COX-1) [µM] | IC50 (COX-2) [µM] | SI (IC50 for COX-1/IC50 for COX-2) (COX-1) | IC50 [1] [µM] |
| --- | --- | --- | --- | --- | --- |
| O=C(Cc1c[nH]c2ccccc12)NN=Cc1ccc(N2CCCCC2)cc1 [Compound 3c, 2-(1H-Indol-3-yl)-N′-[4-(piperidin-1-yl)benzylidene]acetohydrazide] | 265 to 266 | > 100 | > 100 |  | 21.3 ± 0.58 |
| CS(=O)(=O)c1ccc(C=NNC(=O)Cc2c[nH]c3ccccc23)cc1 [Compound 3e, 2-(1H-Indol-3-yl)-N′-(4-methylsulfonylbenzylidene)acetohydrazide] | 264 to 265 | 83.8 ± 6.25 | 35 ± 9.9 | 2.39 | 85 ± 17.3 |
| CN1CCN(c2ccc(C=NNC(=O)Cc3c[nH]c4ccccc34)cc2)CC1 [Compound 3d, 2-(1H-Indol-3-yl)-N′-[4-(4-methylpiperazin-1-yl)benzylidene]acetohydrazide] | 218 to 220 | 78.5 ± 8.5 | > 100 | <0.79 | 20 ± 1.73 |
| O=C(Cc1c[nH]c2ccccc12)NN=Cc1ccc(N2CCCC2)cc1 [Compound 3a, 2-(1H-Indol-3-yl)-N′-[4-(pyrrolidin-1-yl)benzylidene]acetohydrazide] | 302 to 303 | 10.3 ± 0.35 | 12.5 ± 0.71 | 0.83 | 17.3 ± 2.08 |
| COc1ccc2[nH]cc(C=NNC(=O)Cc3c[nH]c4ccccc34)c2c1 [Compound 3j, 2-(1H-Indol-3-yl)-N′-[(5-methoxy-1H-indol-3-yl)methylene]acetohydrazide] |  | > 100 | 44.5 ± 6.36 | >2.25 | 43 ± 1.73 |
| O=C(Cc1c[nH]c2ccccc12)NN=Cc1ccc(OCCN2CCOCC2)cc1 [Compound 3h, 2-(1H-Indol-3-yl)-N′-[4-(2-morpholinoethoxy)benzylidene]acetohydrazide] | 132 to 135 | 38.5 ± 1.5 | 50.5 ± 0.7 | 0.76 | < 3.9 |
| CC(=NNC(=O)Cc1c[nH]c2ccccc12)c1ccc(S(C)(=O)=O)cc1 [Compound 3f, 2-(1H-Indol-3-yl)-N′-[1-(4-methylsulfonylphenyl)ethylidene]acetohydrazide] | 204 to 205 | 93.7 ± 6.25 | 51 ± 12.7 | 1.84 | < 3.9 |
| Cn1cc(C=NNC(=O)Cc2c[nH]c3ccccc23)c2ccccc21 [Compound 3i, 2-(1H-Indol-3-yl)-N′-[(1-methyl-1H-indol-3-yl)methylene]acetohydrazide] | 221 to 224 | 31.2 ± 1.25 | > 100 | <0.31 | 42.3 ± 0.58 |
| CC(=NNC(=O)Cc1c[nH]c2ccccc12)c1ccc(N2CCOCC2)cc1 [Compound 3g, 2-(1H-Indol-3-yl)-N′-[1-(4-morpholinophenyl)ethylidene]acetohydrazide] | 198 to 199 | 51 ± 1 | 52.5 ± 0.71 | 0.97 | < 3.9 |

Further lines, with some results ahead:

| melting point [°C] | IC50 (COX-1) [µM] | IC50 (COX-2) [µM] | SI (IC50 for COX-1/IC50 for COX-2) (COX-1) | Compound | IC50 [1] [µM] |
| --- | --- | --- | --- | --- | --- |
| 180 to 182 | > 100 | 56.5 ± 4.49 | >1.77 | N#Cc1ccc(NC(=S)NNC(=O)Cc2c[nH]c3ccccc23)cc1 [Compound 4c, 4-(4-Cyanophenyl)-1-[2-(1H-indol-3-yl)acetyl]thiosemicarbazide] | 26.3 ± 3.51 |
| 168 to 170 | > 100 | 51.5 ± 0.71 | >1.94 | O=C(Cc1c[nH]c2ccccc12)NNC(=S)Nc1ccc2c(c1)OCO2 [Compound 4f, 4-(1,3-Benzodioxol-5-yl)-1-[2-(1H-indol-3-yl)acetyl]thiosemicarbazide] | 14 ± 5.29 |
| 196 to 198 | > 100 | 31.5 ± 2.12 | >3.17 | O=C(Cc1c[nH]c2ccccc12)NNC(=S)Nc1ccc(-n2cccn2)cc1 [Compound 4e, 4-[4-(1H-Pyrazol-1-yl)phenyl]-1-[2-(1H-indol-3-yl)acetyl]thiosemicarbazide] | 62.3 ± 7.51 |
| 184 to 186 | > 100 | 61.5 ± 0.71 | >1.63 | O=C(Cc1c[nH]c2ccccc12)NNC(=S)Nc1ccc(C(F)(F)F)cc1 [Compound 4b, 4-(4-Trifluoromethylphenyl)-1-[2-(1H-indol-3-yl)acetyl]thiosemicarbazide] | 22.7 ± 2.08 |
| 182 to 184 | > 100 | 59 ± 8.48 | >1.69 | O=C(Cc1c[nH]c2ccccc12)NNC(=S)Nc1ccc(S(=O)(=O)N2CCCCC2)cc1 [Compound 4d, 4-[4-(Piperidin-1-ylsulfonyl)phenyl]-1-[2-(1H-indol-3-yl)acetyl]thiosemicarbazide] | 45.7 ± 6.03 |
| 198 to 200 | > 100 | 59.5 ± 2.12 | >1.68 | O=C(Cc1c[nH]c2ccccc12)NNC(=S)Nc1ccc(OCc2ccccc2)cc1 [Compound 4g, 4-[4-(Benzyloxy)phenyl]-1-[2-(1H-indol-3-yl)acetyl]thiosemicarbazide] | 14 ± 3.46 |
